In patent US4256765A, “Novel hydroxamic acid compounds, method for preparation thereof and medicaments containing such compounds” (priority 1978, dated 1981):

Key:
[1] = Urinary excretion in rats; assay type: in vivo, SD strain male rats; settings: rat, po; 100 mg/Kg orally, SD male rats, urine excreted within 24 hours; read-out: Urinary excretion (%) (mean value ± S. E.)
Method: (2) Measurement of urinary excretion in rats
100 mg/Kg of the test compounds were administered orally to the SD strain male rats weighing about 300 g, and urine specimens excreted within 24 hours were collected by cross-over method. Amounts of the test compounds in urine were determined according to the method of Kobashi et al. [Refer to Yakugaku Zasshi 93 (12), 1564-1572 (1973); J. Biochem. 83, 287-293 (1973).]

Acute toxicity (LD50) = assay type: in vivo; settings: for acute toxicity (in words): rats; for LD50: rat, in vivo
Method: The test compounds were administered orally to SD strain male rats weighing about 270 g and SD strain female rats weighing about 170 g.

[2] = biological target: T1, Urease extracted and purified from sword bean (Canavalia gladiata, UniProt A0AAN9R4W0); assay: Urease inhibitory activity (I50), method of Kobashi et al.; assay type: biochemical; settings: read-out: Urease-inhibitory activity I50
T1 construct: nickel homohexamer by analogy with jack bean urease
Method: (1) Measurement of urease inhibitory activity of test compounds
Urease was extracted and purified from sword bean and molar concentrations of the test compounds causing 50% inhibition of urease activity (I50) were determined by the method of Kobashi et al. [Refer to Biochim, Biophys. Acta 227, 429-441 (1971).]

[3] = system: Salmonela typhimurium TA-98 and TA-100; assay: Mutagenic activity in microbial tests; assay type: cell-based, Salmonella typhimurium
Method: The screening of mutagenicity was carried out according to Ames test [Refer to Ames B. N. et al.: Proc: Natl. Acad. Sci. U.S.A., 72, 979-983 (1975)] which is now widely utilized all over the world as an examination for detection of mutagenicity.
Using the strain of Salmonela typhimurium TA-98 and TA-100 as the test bacteria, the mutageic activity was examined for the test compounds untreated with S-9 (9,000×g supernatant fraction of the rat liver homogenate induced with PCB) and the test compounds treated with S-9, respectively. The examined concentration of the test compounds was up to 40,000 μg/ml. Dimethyl sulfoxide (DMSO) was used as solvent.
The result of examination was judged to be positive, when the number of reverse mutation colony was twice comparing with the control group and the positive correlation between dosage and mutagenic activity of the test compound was recognized.

[4] = clinical study of urolithiasis; cited from earlier work
Proteus mirabilis (OM-1) [5] = assay: Inhibitory effect on calculus formation in urine; assay type: cell-based; settings: for inhibition of the calculus formation in urine (in words): Proteus mirabilis (OM-1) inoculated to normal human urine; for inhibition at 200 µM / inhibition at 1000 µM: Proteus mirabilis, 8 h, normal human urine, read-out: Inhibitory rate of calculus formation (%) (mean value ± S. E.) 8 hours after inoculation; for inhibition at 200 µM: 2 × 10^-4 M test compound; for inhibition at 1000 µM: 10^-3 M test compound
Method: (§1) To 18 ml of normal human urine was added each test compound to make 10^-3 M and 2×10^-4 M test solution in a final concentration.
(§2) On the other hand, distilled water was added to 18 ml of normal human urine instead of the test compound to make a blank solution.
(§3) To the solution was inoculated intact Proteus mirabilis (OM-1) to make a cell suspension of 2.75×10^5 cells/ml and harvested at 37° C. Before inoculation and at 8 hours after inoculation, the pH values of the solution were measured.
Inhibitory rate of calculi formation was calculated by measuring the weight of formed calculi.

Proteus mirabilis (OM-1) [6] = assay: Inhibitory effect on alkalization of urine; assay type: cell-based; settings: for pH value (mean value ± S. E.) 8 hours after inoculation: normal human urine, Proteus mirabilis 2.75×10^5 cells/ml, 37° C.; for inhibition of the alkalization of urine (in words): Proteus mirabilis (OM-1) inoculated to normal human urine
Method: as §1, §2, §3

T1 sequence (A0AAN9R4W0 entry or part of it): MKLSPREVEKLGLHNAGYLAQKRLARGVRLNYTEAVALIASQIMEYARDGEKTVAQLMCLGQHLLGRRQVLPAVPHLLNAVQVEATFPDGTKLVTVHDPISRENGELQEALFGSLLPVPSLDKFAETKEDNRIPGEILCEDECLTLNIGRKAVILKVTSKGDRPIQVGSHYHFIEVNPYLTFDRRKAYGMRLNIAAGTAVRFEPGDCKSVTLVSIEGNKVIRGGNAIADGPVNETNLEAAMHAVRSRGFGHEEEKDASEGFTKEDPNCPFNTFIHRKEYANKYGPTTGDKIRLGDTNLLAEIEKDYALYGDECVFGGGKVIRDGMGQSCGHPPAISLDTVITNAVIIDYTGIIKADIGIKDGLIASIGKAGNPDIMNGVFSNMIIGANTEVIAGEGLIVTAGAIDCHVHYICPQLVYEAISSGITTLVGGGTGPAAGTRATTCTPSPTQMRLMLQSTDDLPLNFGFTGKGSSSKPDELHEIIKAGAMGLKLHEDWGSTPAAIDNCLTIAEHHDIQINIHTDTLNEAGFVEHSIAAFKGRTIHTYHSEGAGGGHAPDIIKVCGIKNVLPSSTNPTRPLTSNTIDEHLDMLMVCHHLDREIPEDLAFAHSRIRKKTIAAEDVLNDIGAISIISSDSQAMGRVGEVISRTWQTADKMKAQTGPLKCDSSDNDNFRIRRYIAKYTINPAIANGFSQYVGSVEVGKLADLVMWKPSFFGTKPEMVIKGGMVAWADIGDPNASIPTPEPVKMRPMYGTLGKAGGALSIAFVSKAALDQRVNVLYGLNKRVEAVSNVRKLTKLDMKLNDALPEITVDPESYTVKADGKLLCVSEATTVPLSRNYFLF

Q: Which dose excreted at 24 h [1] does the source give for `CCC(C)C(=O)NCC(=O)NO` (racemic) [Compound C, N-(DL-2-methyl-n-butyloyl)-glycinohydroxamic acid] here?
A: The dose excreted at 24 h was 9.25 ± 2.16%.

Q: What about the “acute toxicity (in words)” value (Acute toxicity (LD50); oral) of the same molecule?
A: The value was “low”.

Q: And the LD50 (Acute toxicity (LD50); oral, SD male and female rats)?
A: The LD50 was greater than 9000 mg/kg.

Q: What about the IC50 [2] of the same molecule?
A: The IC50 was 1.29 µM.

Q: With `O=C(CNC(=O)c1ccco1)NO` [2-(2-furoylamino)-acetohydroxamic acid] as the molecule, how does the “mutagenic activity (in words)” value [3] read?
A: The value was “show mutagenecity”.

Q: Which “mutagenic activity (in words)” value [3] does the source give for `CC(=O)Nc1cccc(C(=O)NCC(=O)NO)c1` [2-(meta-acetylaminobenzamide)-acetohydroxamic acid] here?
A: Its value is “show mutagenecity”.

Q: With `COc1cccc(C(=O)NCC(=O)NO)c1` [2-(meta-methoxybenzamide)-acetohydroxamic acid] as the molecule, how does the “mutagenic activity (in words)” value [3] read?
A: Its value is “show mutagenecity”.

Q: For `COc1ccc(C(=O)NCC(=O)NO)cc1` [2-(para-methoxybenzamide)-acetohydroxamic acid], which “mutagenic activity (in words)” value [3] is on record?
A: Its value is “show mutagenecity”.

Q: Which “mutagenic activity (in words)” value [3] does the source give for `O=C(CNC(=O)c1ccc(Cl)cc1)NO` [Benurestat, 2-(para-chlorobenzamide)-acetohydroxamic acid] here?
A: Its value is “have the mutagenic activity”.

Q: What does the source list for `CC(=O)NO` [CH3 CONHOH, Acetohydroxamic acid]?
A: decreasing the amount of ammonia in urine and preventing the alkalization of urine (in words) [4]: effective; mutagenic activity (in words) [3]: have the mutagenic activity

Q: For `CC(C)(C)C(=O)NCC(=O)NO` [Compound A, N-(pivaloyl)-glycinohydroxamic acid], which dose excreted at 24 h [1] is on record?
A: The dose excreted at 24 h was 14.6 ± 1.82%.

Q: What about the “inhibition of the calculus formation in urine (in words)” value (Proteus mirabilis (OM-1) [5]) of the same molecule?
A: Its value is “inhibited”.

Q: And the inhibition at 200 µM (Proteus mirabilis (OM-1) [5])?
A: Its inhibition at 200 µM is 50 ± 5.2%.

Q: And the inhibition at 1000 µM (Proteus mirabilis (OM-1) [5])?
A: Its inhibition at 1000 µM is 82 ± 8.2%.

Q: What about the “acute toxicity (in words)” value (Acute toxicity (LD50); oral) of the same molecule?
A: The value was “low”.

Q: What about the LD50 (Acute toxicity (LD50); oral, SD male and female rats) of the same molecule?
A: The LD50 was greater than 9000 mg/kg.

Q: What about the “pH value (mean value ± S. E.) 8 hours after inoculation” value (“pH value (mean value ± S. E.) 8 hours” below) (Proteus mirabilis (OM-1) [6]; 2 × 10^-4 M test compound) of the same molecule?
A: Its value is 8.41 ± 0.007.

Q: And the “pH value (mean value ± S. E.) 8 hours” value (Proteus mirabilis (OM-1) [6]; 10^-3 M test compound)?
A: Its value is 7.33 ± 0.09.

Q: And the “inhibition of the alkalization of urine (in words)” value (Proteus mirabilis (OM-1) [6])?
A: The value was “inhibited the alkalization of urine”.

Q: And the IC50 [2]?
A: The IC50 was 4.38 µM.

Q: Which dose excreted at 24 h [1] does the source give for `CCC(CC)C(=O)NCC(=O)NO` [Compound B, N-(2-ethyl-n-butyloyl)-glycinohydroxamic acid] here?
A: The dose excreted at 24 h was 5.37 ± 0.852%.

Q: What about the “inhibition of the calculus formation in urine (in words)” value (Proteus mirabilis (OM-1) [5]) of the same molecule?
A: Its value is “inhibited”.

Q: And the inhibition at 200 µM (Proteus mirabilis (OM-1) [5])?
A: The inhibition at 200 µM was 93.7 ± 1.6%.

Q: And the inhibition at 1000 µM (Proteus mirabilis (OM-1) [5])?
A: The inhibition at 1000 µM was 95.7%.

Q: And the “acute toxicity (in words)” value (Acute toxicity (LD50); oral)?
A: The value was “low”.

Q: What about the LD50 (Acute toxicity (LD50); po) of the same molecule?
A: Its LD50 is greater than 9000 mg/kg.

Q: What about the “pH value (mean value ± S. E.) 8 hours” value (Proteus mirabilis (OM-1) [6]; 2 × 10^-4 M test compound) of the same molecule?
A: Its value is 7.24 ± 0.04.

Q: And the “pH value (mean value ± S. E.) 8 hours” value (Proteus mirabilis (OM-1) [6]; 10^-3 M test compound)?
A: Its value is 6.14 ± 0.01.

Q: And the “inhibition of the alkalization of urine (in words)” value (Proteus mirabilis (OM-1) [6])?
A: The value was “inhibited the alkalization of urine”.

Q: And the IC50 [2]?
A: Its IC50 is 0.79 µM.
